Measured values: PubChem BioAssay AID2060884 (Molecular Pharmacology Branch, DTP, NCI, 2025)

System: NCI-H929 complex spheroids, viability % test/control
Assay: Anticancer human tumor NCI-H929 cell line growth inhibition [RAS];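 also: compound exposure lasted seven days before viability was read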;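 as to viability, T/C: 100% = DMSO vehicle control viability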
Conditions: for viability, T/C: stronger effect = lower value; active = viability on the fitted dose curve at most 10% of control; inactive = the rest
Summary of the method: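 Agents were tested in combination matrices in half-log decrements from a top concentration at or near clinical Cmax (10 microM if undetermined). Targets were multi-cell spheroids of tumour lines plus HUVEC and MSC stromal cells.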

[1] = curve of first compound, second compound 0.00316 µM
[2] = curve of first compound, second compound 0.01 µM
[3] = curve of first compound, second compound 0.0316 µM
[4] = curve of first compound, second compound 0.1 µM
[5] = curve of first compound, second compound 0.316 µM
[6] = curve of first compound, second compound 1 µM
[7] = second compound 0.00316 µM, first compound 0.0316 µM
[8] = second compound 0.00316 µM, first compound 0.1 µM
[9] = second compound 0.00316 µM, first compound 0.316 µM
[10] = second compound 0.00316 µM, first compound 1 µM
[11] = second compound 0.01 µM, first compound 0.0316 µM
[12] = second compound 0.01 µM, first compound 0.1 µM
[13] = second compound 0.01 µM, first compound 0.316 µM
[14] = second compound 0.01 µM, first compound 1 µM
[15] = second compound 0.0316 µM, first compound 0.0316 µM
[16] = second compound 0.0316 µM, first compound 0.1 µM
[17] = second compound 0.0316 µM, first compound 0.316 µM
[18] = second compound 0.0316 µM, first compound 1 µM
[19] = second compound 0.1 µM, first compound 0.0316 µM
[20] = second compound 0.1 µM, first compound 0.1 µM
[21] = second compound 0.1 µM, first compound 0.316 µM
[22] = second compound 0.1 µM, first compound 1 µM
[23] = second compound 0.316 µM, first compound 0.0316 µM
[24] = second compound 0.316 µM, first compound 0.1 µM
[25] = second compound 0.316 µM, first compound 0.316 µM
[26] = second compound 0.316 µM, first compound 1 µM
[27] = second compound 1 µM, first compound 0.0316 µM
[28] = second compound 1 µM, first compound 0.1 µM
[29] = second compound 1 µM, first compound 0.316 µM
[30] = second compound 1 µM, first compound 1 µM

CCN1CCN(Cc2ccc(Nc3ncc(F)c(-c4cc(F)c5nc(C)n(C(C)C)c5c4)n3)nc2)CC1 + C=CC(=O)N1CCN(c2nc(OCC3CCCN3C)nc3c(F)c(-c4nc(N)cc(C)c4C(F)(F)F)c(Cl)cc23)C(C)C1
inactive: viability, T/C (second compound 0.00316 µM, first compound 0.00316 µM) 99.6% | viability, T/C (second compound 0.00316 µM, first compound 0.01 µM) 97.4% | viability, T/C [7] 108% | viability, T/C [8] 103% | viability, T/C [9] 117% | viability, T/C [10] 107% | viability, T/C (second compound 0.01 µM, first compound 0.00316 µM) 100% | viability, T/C (second compound 0.01 µM, first compound 0.01 µM) 105% | viability, T/C [11] 105% | viability, T/C [12] 109% | viability, T/C [13] 118% | viability, T/C [14] 115% | viability, T/C (second compound 0.0316 µM, first compound 0.00316 µM) 102% | viability, T/C (second compound 0.0316 µM, first compound 0.01 µM) 103% | viability, T/C [15] 112% | viability, T/C [16] 109% | viability, T/C [17] 119% | viability, T/C [18] 113% | viability, T/C (second compound 0.1 µM, first compound 0.00316 µM) 95.8% | viability, T/C (second compound 0.1 µM, first compound 0.01 µM) 105% | viability, T/C [19] 108% | viability, T/C [20] 112% | viability, T/C [21] 119% | viability, T/C [22] 111% | viability, T/C (second compound 0.316 µM, first compound 0.00316 µM) 102% | viability, T/C (second compound 0.316 µM, first compound 0.01 µM) 105% | viability, T/C [23] 113% | viability, T/C [24] 113% | viability, T/C [25] 119% | viability, T/C [26] 115% | viability, T/C (second compound 1 µM, first compound 0.00316 µM) 108% | viability, T/C (second compound 1 µM, first compound 0.01 µM) 111% | viability, T/C [27] 112% | viability, T/C [28] 114% | viability, T/C [29] 120% | viability, T/C [30] 101%
> 1000 nM: IC50 [1] | IC50 [2] | IC50 [3] | IC50 [4] | IC50 [5] | IC50 [6]

NC1c2ccccc2OC12CCN(c1cnc3c(N4CCCc5ncccc54)n[nH]c3n1)CC2 (centres undefined) + C=CC(=O)N1CCN(c2nc(OCC3CCCN3C)nc3c(F)c(-c4nc(N)cc(C)c4C(F)(F)F)c(Cl)cc23)C(C)C1
inactive: viability, T/C [7] 98.8% | viability, T/C [8] 94.8% | viability, T/C [9] 99.3% | viability, T/C [10] 98.9% | viability, T/C (second compound 0.00316 µM, first compound 3.16 µM) 101% | viability, T/C (second compound 0.00316 µM, first compound 10 µM) 66.2% | viability, T/C [11] 96.2% | viability, T/C [12] 90.6% | viability, T/C [13] 96% | viability, T/C [14] 103% | viability, T/C (second compound 0.01 µM, first compound 3.16 µM) 99% | viability, T/C (second compound 0.01 µM, first compound 10 µM) 66.8% | viability, T/C [15] 96.9% | viability, T/C [16] 99.7% | viability, T/C [17] 101% | viability, T/C [18] 99.8% | viability, T/C (second compound 0.0316 µM, first compound 3.16 µM) 96.6% | viability, T/C (second compound 0.0316 µM, first compound 10 µM) 63.5% | viability, T/C [19] 92.4% | viability, T/C [20] 99% | viability, T/C [21] 102% | viability, T/C [22] 97.4% | viability, T/C (second compound 0.1 µM, first compound 3.16 µM) 97.5% | viability, T/C (second compound 0.1 µM, first compound 10 µM) 69.3% | viability, T/C [23] 101% | viability, T/C [24] 103% | viability, T/C [25] 105% | viability, T/C [26] 103% | viability, T/C (second compound 0.316 µM, first compound 3.16 µM) 102% | viability, T/C (second compound 0.316 µM, first compound 10 µM) 71.7% | viability, T/C [27] 104% | viability, T/C [28] 107% | viability, T/C [29] 103% | viability, T/C [30] 102% | viability, T/C (second compound 1 µM, first compound 3.16 µM) 105% | viability, T/C (second compound 1 µM, first compound 10 µM) 68.9%
> 10000 nM: IC50 [1] | IC50 [2] | IC50 [3] | IC50 [4] | IC50 [5] | IC50 [6]

O=C(c1ccc(F)c(F)c1Nc1ccc(I)cc1F)N1CC(O)([C@@H]2CCCCN2)C1 + CCn1c(-c2cc(N3CCN(C)CC3)cnc2C(C)OC)c2c3cc(ccc31)-c1csc(n1)CC(NC(=O)C1CC1C)C(=O)N1CCCC(N1)C(=O)OCC(C)(C)C2
625 nM: IC50 (curve of first compound, second compound 0.000949 µM)
290 nM: IC50 (curve of first compound, second compound 0.003 µM)
inactive: viability, T/C (second compound 0.000949 µM, first compound 0.00316 µM) 93.3% | viability, T/C (second compound 0.000949 µM, first compound 0.01 µM) 92.5% | viability, T/C (second compound 0.000949 µM, first compound 0.0316 µM) 103% | viability, T/C (second compound 0.000949 µM, first compound 0.1 µM) 108% | viability, T/C (second compound 0.000949 µM, first compound 0.316 µM) 97.3% | viability, T/C (second compound 0.000949 µM, first compound 1 µM) 17.4% | viability, T/C (second compound 0.003 µM, first compound 0.00316 µM) 90.8% | viability, T/C (second compound 0.003 µM, first compound 0.01 µM) 101% | viability, T/C (second compound 0.003 µM, first compound 0.0316 µM) 111% | viability, T/C (second compound 0.003 µM, first compound 0.1 µM) 119% | viability, T/C (second compound 0.003 µM, first compound 0.316 µM) 45.5% | viability, T/C (second compound 0.00949 µM, first compound 0.00316 µM) 110% | viability, T/C (second compound 0.00949 µM, first compound 0.01 µM) 117% | viability, T/C (second compound 0.00949 µM, first compound 0.0316 µM) 113% | viability, T/C (second compound 0.00949 µM, first compound 0.1 µM) 19.9% | viability, T/C (second compound 0.03 µM, first compound 0.00316 µM) 31.8% | viability, T/C (second compound 0.03 µM, first compound 0.01 µM) 15.7%
active: viability, T/C (second compound 0.003 µM, first compound 1 µM) 7.02% | viability, T/C (second compound 0.00949 µM, first compound 0.316 µM) 6.27% | viability, T/C (second compound 0.00949 µM, first compound 1 µM) 3.63% | viability, T/C (second compound 0.03 µM, first compound 0.0316 µM) 4.87% | viability, T/C (second compound 0.03 µM, first compound 0.1 µM) 2.83% | viability, T/C (second compound 0.03 µM, first compound 0.316 µM) 2.77% | viability, T/C (second compound 0.03 µM, first compound 1 µM) 2.07% | viability, T/C (second compound 0.0949 µM, first compound 0.00316 µM) 4.34% | viability, T/C (second compound 0.0949 µM, first compound 0.01 µM) 3.41% | viability, T/C (second compound 0.0949 µM, first compound 0.0316 µM) 1.75% | viability, T/C (second compound 0.0949 µM, first compound 0.1 µM) 1.48% | viability, T/C (second compound 0.0949 µM, first compound 0.316 µM) 1.32% | viability, T/C (second compound 0.0949 µM, first compound 1 µM) 0.89% | viability, T/C (second compound 0.3 µM, first compound 0.00316 µM) 3% | viability, T/C (second compound 0.3 µM, first compound 0.01 µM) 1.97% | viability, T/C (second compound 0.3 µM, first compound 0.0316 µM) 1.19% | viability, T/C (second compound 0.3 µM, first compound 0.1 µM) 1.05% | viability, T/C (second compound 0.3 µM, first compound 0.316 µM) 1.12% | viability, T/C (second compound 0.3 µM, first compound 1 µM) 0.68%
69 nM: IC50 (curve of first compound, second compound 0.00949 µM)
< 3.16 nM: IC50 (curve of first compound, second compound 0.03 µM) | IC50 (curve of first compound, second compound 0.0949 µM) | IC50 (curve of first compound, second compound 0.3 µM)

CCn1c(-c2cccnc2C(C)OC)c2c3cc(ccc31)N1CCOC(CC(NC(=O)C(C(C)C)N(C)C(=O)C3(F)CCN(C(=O)C#CC(C)(C)N(C)C)CC3)C(=O)N3CCCC(N3)C(=O)OCC(C)(C)C2)C1 (centres undefined)
> 300 nM: IC50 (compound alone, run of 08/20/2024)
inactive: viability, T/C (compound 0.000949 µM) 107% [middle of 8 runs] | viability, T/C (compound 0.003 µM) 106% [middle of 8 runs] | viability, T/C (compound 0.00949 µM) 106% [middle of 8 runs] | viability, T/C (compound 0.03 µM) 104% [middle of 8 runs] | viability, T/C (compound 0.0949 µM) 99.9% [middle of 8 runs] | viability, T/C (compound 0.3 µM) 98.9% [middle of 8 runs]

CCC(CC)c1cc(NC2CCC(N)C2)n2nccc2n1 (centres undefined)
active: viability, T/C (compound 3.16 µM) 1.51% [middle of 4 runs] | viability, T/C (compound 10 µM) 0.97% [middle of 4 runs]
1.74 µM [middle of 4 runs]: IC50 (curve of compound)
inactive: viability, T/C (compound 0.0316 µM) 101% [middle of 4 runs] | viability, T/C (compound 0.1 µM) 98% [middle of 4 runs] | viability, T/C (compound 0.316 µM) 99.4% [middle of 4 runs]
